Measured values reported in US11970497B2, “Tricyclic AKR1C3 dependent KARS inhibitors” (Novartis AG, priority 2019, dated 2024).

Tested on: H460 (NRF2 pathway mutant cell line with high AKR1C3 expression)
Test: In vitro cell proliferation assay (CellTiter-Glo), H460
Format: cell-based
Conditions: Homo sapiens, NCI-H460, 72 h, read-out: H460 Qualified absolute AC50
Description: Cellular Proliferation Assay to Assess Compounds Activity in H460 (NRF2 Pathway Mutant Cell Line with High AKR1C3 Expression) and Hara (NRF2 Pathway Wild Type Cell Line with Low AKR1C3 Expression).
The cell lines A549 and H460 are NRF2 pathway mutant and specifically contain genetic alterations in KEAP1 (A549: G333C, H460: D236H) (Singh A. et al., 2006 PLoS Medicine 3(10) e420). In these cell lines the NRF2 pathway is constitutively active and these cells express high levels of NRF2 protein and NRF2 pathway target gene AKR1C3. […] They have low AKR1C3 expression.
In Vitro Cell Proliferation Assay
Day 1, for H460 800 cells/well or 40 μL of 2×10^4 cells/mL and for Hara 2000 cells/well or 40 μL of 5×10^4 cells/mL medium (RPMI-1640 supplemented with 10% fetal bovine serum and 1% penicillin/streptomycin) were seeded into 384-well tissue culture plates. Day 2, compounds were serially diluted 1:5 to generate 8 point dose response curves and added to cells for a final top concentration of 10 μM. DMSO (1%) control and MG132 (30 μM) controls are added in columns 23 and 24 respectively on each plate for positive and negative control. After incubation for 3 days at 37° C./5% CO2, 30 μl of CellTiter-Glo reagent (Promega) was added and the plates were incubated for 10 min on plate shaker. The amount of luminescence was determined using a Perkin Elmer Envision plate reader. CellTiter-Glo luminescence values of cells treated with DMSO and MG132 controls were used to normalize the data and calculate percentage activity and AC50s of compounds using the Helios Software suite.

Row | Structure (SMILES) | AC50
1 | O=C1CC2(CCN(C(=O)NCc3ccc(OP(=O)(O)O)cc3)CC2)Nc2ccc(F)cc21 [Example 4, 4-((6′-fluoro-4′-oxo-3′,4′-dihydro-1′H-spiro[piperidine-4,2′-quinoline]-1-carboxamido)methyl)phenyl dihydrogen phosphate] | 6 nM

Same assay, conditions: Homo sapiens, NCI-H460, 72 h; H460 cells, 3 days, CellTiter-Glo, top concentration 10 μM; read-out: H460 Qualified absolute AC50

Row | Structure (SMILES) | AC50
2 | CC(O)CNC(=O)c1cc(CNC(=O)N2CCC3(CC2)CC(=O)c2cc(F)ccc2N3C)ccc1F (racemic) [Example 88, 6′-fluoro-N-(4-fluoro-3-((2-hydroxypropyl)carbamoyl)benzyl)-1′-methyl-4′-oxo-3′,4′-dihydro-1′H-spiro[piperidine-4,2′-quinoline]-1-carboxamide] | 421 nM
3 | Cc1occc1CNC(=O)N1CCC2(CC1)C[C@@H](O)c1cc(F)ccc1N2 (single isomer, unassigned) [Example 169] | 8 nM
4 | Nc1ccc(CNC(=O)N2CCC3(CC2)C[C@@H](O)c2cc(F)ccc2N3)cc1F (single isomer, unassigned) [Example 170a] | 11 nM
5 | Nc1ccc(CNC(=O)N2CCC3(CC2)C[C@H](O)c2cc(F)ccc2N3)cc1F (single isomer, unassigned) [Example 170b] | ≥ 17300 nM
6 | Cc1ccc(CNC(=O)N2CCC3(CC2)CC(=O)c2cc(F)ccc2N3)o1 [Example 1, 6′-fluoro-N-((5-methylfuran-2-yl)methyl)-4′-oxo-3′,4′-dihydro-1′H-spiro[piperidine-4,2′-quinoline]-1-carboxamide] | 143 nM
7 | Cc1ccc(CNC(=O)N2CCC3(CC2)CC(=O)c2cc(F)ccc2N3C)o1 [Example 7, 6′-fluoro-1′-methyl-N-((5-methylfuran-2-yl)methyl)-4′-oxo-3′,4′-dihydro-1′H-spiro[piperidine-4,2′-quinoline]-1-carboxamide] | 10 nM
8 | O=C1CC2(CCN(C(=O)NCc3ccc(Cl)o3)CC2)Nc2ccc(F)cc21 [Example 22, N-((5-chlorofuran-2-yl)methyl)-6′-fluoro-4′-oxo-3′,4′-dihydro-1′H-spiro[piperidine-4,2′-quinoline]-1-carboxamide] | 37 nM
9 | CN1c2ccc(F)cc2C(=O)CC12CCN(C(=O)NCc1ccc(F)c(NCC3COCCO3)c1)CC2 (centres unmarked) [Example 31, N-(3-(((1,4-dioxan-2-yl)methyl)amino)-4-fluorobenzyl)-6′-fluoro-1′-methyl-4′-oxo-3′,4′-dihydro-1′H-spiro[piperidine-4,2′-quinoline]-1-carboxamide] | 64 nM
10 | O=C(NCc1ccc(CO)cc1)c1cc(CNC(=O)N2CCC3(CC2)CC(=O)c2cc(F)ccc2N3)ccc1F [Example 32, 6′-fluoro-N-(4-fluoro-3-((4-(hydroxymethyl)benzyl)carbamoyl)benzyl)-4′-oxo-3′,4′-dihydro-1′H-spiro[piperidine-4,2′-quinoline]-1-carboxamide] | 64 nM
11 | Cc1coc(C)c1CNC(=O)N1CCC2(CC1)CC(=O)c1cc(F)ccc1N2 [Example 34, N-((2,4-dimethylfuran-3-yl)methyl)-6′-fluoro-4′-oxo-3′,4′-dihydro-1′H-spiro[piperidine-4,2′-quinoline]-1-carboxamide] | 75 nM
12 | O=C1CC2(CCN(C(=O)NCc3cn[nH]c3)CC2)Nc2ccc(F)cc21 [Example 37, N-((1H-pyrazol-4-yl)methyl)-6′-fluoro-4′-oxo-3′,4′-dihydro-1′H-spiro[piperidine-4,2′-quinoline]-1-carboxamide] | 81 nM
13 | CN1CCN(C(=O)C(C)(C)CNc2cc(CNC(=O)N3CCC4(CC3)CC(=O)c3cc(F)ccc3N4C)ccc2F)CC1 [Example 44, N-(3-((2,2-dimethyl-3-(4-methylpiperazin-1-yl)-3-oxopropyl)amino)-4-fluorobenzyl)-6′-fluoro-1′-methyl-4′-oxo-3′,4′-dihydro-1′H-spiro[piperidine-4,2′-quinoline]-1-carboxamide] | 99 nM
14 | COCCNC(=O)c1cc(CNC(=O)N2CCC3(CC2)CC(=O)c2cc(F)ccc2N3C)ccc1F [Example 58, 6′-fluoro-N-(4-fluoro-3-((2-methoxyethyl)carbamoyl)benzyl)-1′-methyl-4′-oxo-3′,4′-dihydro-1′H-spiro[piperidine-4,2′-quinoline]-1-carboxamide] | 181 nM
15 | Cc1occc1CNC(=O)N1CCC2(CC1)CC(=O)c1cc(F)ccc1N2 [Example 59, 6′-fluoro-N-((2-methylfuran-3-yl)methyl)-4′-oxo-3′,4′-dihydro-1′H-spiro[piperidine-4,2′-quinoline]-1-carboxamide] | 185 nM
16 | O=C(NC1CC(O)C1)c1cc(CNC(=O)N2CCC3(CC2)CC(=O)c2cc(F)ccc2N3)ccc1F (centres unmarked) [Example 60, 6′-fluoro-N-(4-fluoro-3-((3-hydroxycyclobutyl)carbamoyl)benzyl)-4′-oxo-3′,4′-dihydro-1′H-spiro[piperidine-4,2′-quinoline]-1-carboxamide] | 198 nM
17 | Cc1cc(CNC(=O)N2CCC3(CC2)CC(=O)c2cc(F)ccc2N3)n[nH]1 [Example 72, 6′-fluoro-N-((5-methyl-1H-pyrazol-3-yl)methyl)-4′-oxo-3′,4′-dihydro-1′H-spiro[piperidine-4,2′-quinoline]-1-carboxamide] | 282 nM
18 | Cc1c(CNC(=O)N2CCC3(CC2)CC(=O)c2cc(F)ccc2N3)ccc(F)c1C(N)=O [Example 79, N-(3-carbamoyl-4-fluoro-2-methylbenzyl)-6′-fluoro-4′-oxo-3′,4′-dihydro-1′H-spiro[piperidine-4,2′-quinoline]-1-carboxamide] | 345 nM
19 | CN(C)CCNC(=O)c1cc(CNC(=O)N2CCC3(CC2)CC(=O)c2cc(F)ccc2N3)ccc1F [Example 81, N-(3-((2-(dimethylamino)ethyl)carbamoyl)-4-fluorobenzyl)-6′-fluoro-4′-oxo-3′,4′-dihydro-1′H-spiro[piperidine-4,2′-quinoline]-1-carboxamide] | 352 nM
20 | CN1c2ccc(F)cc2C(=O)CC12CCN(C(=O)NCc1ccc(F)c(NCCN3CCCC3=O)c1)CC2 [Example 90, 6′-fluoro-N-(4-fluoro-3-((2-(2-oxopyrrolidin-1-yl)ethyl)amino)benzyl)-1′-methyl-4′-oxo-3′,4′-dihydro-1′H-spiro[piperidine-4,2′-quinoline]-1-carboxamide] | 443 nM
21 | O=C1CC2(CCN(C(=O)NCc3ccoc3C(F)(F)F)CC2)Nc2ccc(F)cc21 [Example 96, 6′-fluoro-4′-oxo-N-((2-(trifluoromethyl)furan-3-yl)methyl)-3′,4′-dihydro-1′H-spiro[piperidine-4,2′-quinoline]-1-carboxamide] | 489 nM
22 | CN1c2ccc(F)cc2C(=O)CC12CCN(C(=O)NCc1ccc(F)c(C(=O)NCC(C)(C)O)c1)CC2 [Example 97, 6′-fluoro-N-(4-fluoro-3-((2-hydroxy-2-methylpropyl)carbamoyl)benzyl)-1′-methyl-4′-oxo-3′,4′-dihydro-1′H-spiro[piperidine-4,2′-quinoline]-1-carboxamide] | 491 nM
23 | O=C(NCC(=O)C1CC1)c1cc(CNC(=O)N2CCC3(CC2)CC(=O)c2cc(F)ccc2N3)ccc1F [Example 100, N-(3-((2-cyclopropyl-2-oxoethyl)carbamoyl)-4-fluorobenzyl)-6′-fluoro-4′-oxo-3′,4′-dihydro-1′H-spiro[piperidine-4,2′-quinoline]-1-carboxamide] | 518 nM
24 | CCc1noc(C)c1CNC(=O)N1CCC2(CC1)CC(=O)c1cc(F)ccc1N2 [Example 106, N-((3-ethyl-5-methylisoxazol-4-yl)methyl)-6′-fluoro-4′-oxo-3′,4′-dihydro-1′H-spiro[piperidine-4,2′-quinoline]-1-carboxamide] | 598 nM
25 | Cc1cc(CNC(=O)N2CCC3(CC2)CC(=O)c2cc(F)ccc2N3)c(C)o1 [Example 110, N-((2,5-dimethylfuran-3-yl)methyl)-6′-fluoro-4′-oxo-3′,4′-dihydro-1′H-spiro[piperidine-4,2′-quinoline]-1-carboxamide] | 700 nM
26 | CN1c2ccc(F)cc2C(=O)CC12CCN(C(=O)NCc1ccc(F)c(NCC(C)(C)C(=O)N3CCOCC3)c1)CC2 [Example 113] | 846 nM
27 | Cc1ncc(CNC(=O)c2cc(CNC(=O)N3CCC4(CC3)CC(=O)c3cc(F)ccc3N4)ccc2F)o1 [Example 121, 6′-fluoro-N-(4-fluoro-3-(((2-methyloxazol-5-yl)methyl)carbamoyl)benzyl)-4′-oxo-3′,4′-dihydro-1′H-spiro[piperidine-4,2′-quinoline]-1-carboxamide] | 1080 nM
28 | O=C(NC/C=C/CO)c1cc(CNC(=O)N2CCC3(CC2)CC(=O)c2cc(F)ccc2N3)ccc1F [Example 122, (E)-6′-fluoro-N-(4-fluoro-3-((4-hydroxybut-2-en-1-yl)carbamoyl)benzyl)-4′-oxo-3′,4′-dihydro-1′H-spiro[piperidine-4,2′-quinoline]-1-carboxamide] | 1110 nM
29 | Cc1cc(CNC(=O)N2CCC3(CC2)CC(=O)c2cc(F)ccc2N3)c(C(F)(F)F)o1 [Example 127, 6′-fluoro-N-((5-methyl-2-(trifluoromethyl)furan-3-yl)methyl)-4′-oxo-3′,4′-dihydro-1′H-spiro[piperidine-4,2′-quinoline]-1-carboxamide] | 1430 nM
